Results as given in patent publication US12247033B2, “Triazole-substituted imidazo[1,2-a]pyrimidines as cGAS inhibitors” (GlaxoSmithKline Intellectual Property Development Limited, priority 2022, dated 2025).
Converted amounts (≈) assume the structure as drawn. “And” between values parts separate entries of the source, which are not always exact repeats. Identical values can stand only once. Counter-ions that a name gives are not always drawn.

Experiments:
cGAS pathway = experiment: Whole blood (hWB) cytokine release assay (96-well, Bacmam stimulation, plasma IP-10 by Meso-Scale Discovery plates); type: cell-based; details: Table 4, human whole blood from individual healthy donors, 6 h; for IC50: Homo sapiens, read-out: hWB pXC50 (converted)
Experimental: The whole blood (hWB) cytokine release assay was performed as follows.
Human whole blood was collected from individual healthy donors into a 60 ml syringe containing sodium heparin (5 ml sodium heparin per syringe; Cat #309653, Becton-Dickinson, NJ, US). In a biosafety cabinet, 140 ul of the collected blood was transferred to each well of a 96-well flat bottom plate (Cat #167008, VWR, PA, US). The DMSO stock solution of small molecule cGAS inhibitor (10 mM stock solution) was diluted in PBS to prepare 10× solutions (3-fold dilutions) and 20 ul of the prepared 10× solutions was added to appropriate wells. Plates were shaken for 5 minutes at room temperature then incubated at 37° C. for 30 minutes. The stock solution of purified Bacmam was diluted with PBS+0.1% BSA to prepare a 4% (v/v) solution (10×). To activate the cGAS pathway, 20 uL of Bacmam was added to the blood, and the plates were shaken for 10 minutes at room temperature. PBS was added to achieve a final volume of 200 ul. Plates were then incubated at 37° C. for 6 hours.
Plates were removed from incubator and 100 uL/well PBS added. Plates were gently shaken for 10 minutes at room temperature and centrifuged (3000 rpm, 10 minutes) at room temperature. The plasma layer was removed and transferred to a separate 96-well plate and maintained at −80° C.
Plasma samples were measured for IP-10 levels using the IP-10 detection (U-plex or V-plex) plates (Cat #K151-UFK-4; Cat #K151-NVD-4; Meso-Scale Discovery, Inc.).

human CGAS (157-522) = human CGAS (157-522) (Homo sapiens, UniProt Q8N884); experiment: biochemical;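 also: biochemical enzyme reaction, 2′3′-cGAMP product measured by RapidFire mass spectrometry (MRM) normalised to c-di-UMP internal standard, inhibition of product formation relative to high and low control wells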
human CGAS (157-522), sequence (Q8N884 157-522): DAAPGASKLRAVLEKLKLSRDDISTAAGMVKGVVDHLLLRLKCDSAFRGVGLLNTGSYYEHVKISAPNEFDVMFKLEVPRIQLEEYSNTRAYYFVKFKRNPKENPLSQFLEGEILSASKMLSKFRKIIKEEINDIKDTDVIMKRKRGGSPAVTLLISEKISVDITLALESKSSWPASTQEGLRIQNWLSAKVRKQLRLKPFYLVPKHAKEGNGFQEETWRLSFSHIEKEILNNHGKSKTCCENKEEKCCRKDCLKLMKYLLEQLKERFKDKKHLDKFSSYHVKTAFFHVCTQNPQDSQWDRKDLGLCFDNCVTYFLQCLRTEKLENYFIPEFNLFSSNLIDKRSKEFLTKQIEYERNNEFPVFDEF

[1] = FaSSIF solubility (Fasted State Simulated Intestinal Fluid); type: physicochemical; details: thermodynamic from solid, FaSSIF pH 6.5, 4 h equilibration at room temperature, dynamic range 1-1000 μg/mL
Experimental: 1 mL of FaSSIF buffer (3 mM sodium taurocholate, 0.75 mM lecithin in sodium phosphate buffer at pH 6.5) was added to manually weighed 1 mg of the solid compound in a 4 mL vial. […] The residual solid was removed by filtration. The supernatant solution was quantified by HPLC-UV using single point calibration of a known concentration of the compound in DMSO. The dynamic range of the assay was 1-1000 μg/mL.

CGAS = CGAS whole blood cytokine release assay (384-well, BacMam stimulation, IP-10 by cytometric bead array); type: cell-based; details: Homo sapiens, 6 h; read-out: hWB pXC50 (converted)
Summary of the method: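 Heparinised human donor whole blood mixed with serially diluted compound plus Null BacMam stimulus, incubated 6 h at 37° C, 5% CO2. Supernatant IP-10 quantified by cytometric bead array on flow cytometer (488 nm excitation, 585/40 nm emission); inhibition of IP-10 calculated.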

Compound | IC50 (human CGAS (157-522)) [nM] | solubility at 4 h [1] [µg/mL] | IC50 (CGAS) [nM] | hWB pXC50 (cGAS pathway) | IC50 (cGAS pathway) [nM]
CNCCOC(=O)OCn1nc(C(F)(F)F)nc1-c1nc2ncccn2c1-c1cnc[nH]1 [Example 28, {5-[3-(1H-imidazol-5-yl)imidazo[1,2-a]pyrimidin-2-yl]-3-(trifluoromethyl)-1H-1,2,4-triazol-1-yl}methyl 2-(methylamino)ethyl carbonate, 2 trifluoroacetic acid salt] | 3.16 | 208 | 316 |  | 
O=C(CCCOP(=O)(O)O)OCn1cnc(-c2c(-c3nc(C(F)(F)F)n[nH]3)nc3ncccn23)c1 [Example 29, {4-oxo-4-[(4-{2-[3-(trifluoromethyl)-1H-1,2,4-triazol-5-yl]imidazo[1,2-a]pyrimidin-3-yl}-1H-imidazol-1-yl)methoxy]butoxy}phosphonic acid, trifluoroacetic acid salt] | 31.6 | > 1000 | 316 |  | 
FC(F)(F)c1nnc(-c2[nH]c3c(Cl)c(Cl)ccc3c2-c2cn[nH]c2)[nH]1 [WO 2022/137085 Example 11] |  |  |  | 4.6 | > 31600
Cn1c(-c2nnc(C(F)(F)F)[nH]2)c(-n2ccnc2)c2ccc(Cl)c(Cl)c21 [WO 2022/137085 Example 109] |  |  |  | <4.5, <4.5 | > 31600

Further lines, with some results ahead:

IC50 (human CGAS (157-522)) [nM] | solubility at 4 h [1] [µg/mL] | IC50 (CGAS) [nM] | Compound | hWB pXC50 (cGAS pathway) | IC50 (cGAS pathway) [nM]
63.1 |  |  | COc1nc2c(-n3ccnc3)c(-c3nnc(C(F)(F)F)[nH]3)[nH]c2cc1Cl | < 4.5 and 5.0 | 
3.98 | 5 (≈ 14.8 µM) | 316 | Fc1cnc2nc(-c3nc(C(F)(F)F)n[nH]3)c(-c3cnc[nH]3)n2c1 [Example 2, 5-[6-fluoro-3-(1H-imidazol-5-yl)imidazo[1,2-a]pyrimidin-2-yl]-3-(trifluoromethyl)-1H-1,2,4-triazole] |  | 251
